Experimental data reported in PMC9423820, “Melittin-derived peptides exhibit variations in cytotoxicity and antioxidant, anti-inflammatory and allergenic activities” (Animal Cells and Systems, 2022).
Where no end group is shown, it is not given here.

What was measured:
[1] = ABTS radical scavenging assay; type: biochemical; design: key to Anti-oxidant activity (summary): +, active; -, inactive; settings: for antioxidant activity (ABTS radical scavenging), in words: 4 min reaction, absorbance 650 nm, resveratrol as positive control, n = 3; for Anti-oxidant activity (summary): Figure 4B summary, ABTS radical scavenging
Protocol: The antioxidant activities of melittin and melittin-derived peptides were measured using the 2,2'-azino-bis(3-ethylbenzothiazoline-6-sulfonic acid) (ABTS) radical scavenging assay. ABTS^+ radical solution was prepared by mixing equal volumes of 7 mM ABTS solution with 2.4 mM persulfate solution and allowing them to react in the dark at 25 °C for 24 h. Before this reaction, the ABTS^+ radical solution was diluted with distilled water to obtain an absorbance of 0.7 ± 0.01 units at 650 nm. Melittin and melittin-derived peptides (20 µL each) at various concentrations were then reacted with 80 µL of ABTS^+ radical solution for 4 min in the dark, and absorbance was measured at 650 nm using an EMax Plus microplate reader (Molecular Devices, San Jose, CA, USA). ABTS^+ radical scavenging activity was calculated using the following formula: ABTS+ radical scavenging activity (%) = [1 − (Abssample − Absblank of sample) / Abscontrol] × 100, where Abscontrol is the absorbance of ABTS^+ radical solution diluted in water, Abssample is the absorbance of ABTS^+ radical solution mixed with melittin or melittin-derived peptides, and Absblank of sample is the absorbance of water mixed with melittin or melittin-derived peptides. All experiments were performed in triplicates (n = 3).

BEAS-2B cells = assay: MTS cell viability assay (CellTiter 96 Aqueous One), BEAS-2B; type: cell-based, human; design: key to Cytotoxicity (summary): +, active; -, inactive; settings: 24 h; for Cytotoxicity (summary): Figure 4B summary, MTS assay, BEAS-2B and HeLa cells
From the text: Human pulmonary bronchial epithelial BEAS-2B, human epithelial cervix carcinoma HeLa, murine macrophage RAW 264.7, and rat basophilic leukemia mast RBL-2H3 cells were purchased from American Type Culture Collection (ATCC, VA, USA). BEAS-2B cells were maintained in bronchial epithelial basal medium (BEBM; Lonza, Basel, Switzerland). HeLa, RAW 264.7, and RBL-2H3 cells were maintained in DMEM supplemented with 10% heat-inactivated fetal bovine serum (Welgene, Gyeongsangbuk-do, Korea) and 1% penicillin and streptomycin (Welgene) at 37 °C in a humidified atmosphere of 5% CO2. Melittin and its derived peptides (Figure 1A) were synthesized by Peptron, Inc. (Daejeon, Korea).
The effect of melittin and melittin-derived peptides on cell viability was evaluated using the CellTiter 96^R Aqueous One Solution Cell Proliferation Assay (Promega, Madison, WI, USA), according to the manufacturer’s instructions (Cambronero-Urena et al. [2021]). BEAS-2B and HeLa cells were seeded (3,000 cells/well) in 96-well plates and incubated for 24 h. Culture medium containing melittin or melittin-derived peptides was added to the plates, and they were incubated for 24 h. Thereafter, 20 μL of MTS reagent was added, and absorbance was measured at 490 nm using a microplate reader (Molecular Devices EMax Plus). The formula used to calculate the cell viability is as follows: Cell viability (%)={(A Sample−A [Blank]) / (A [Control])−A [Blank])}×100, Where A is the absorbance for a given wavelength.

[2] = tested on: TNF-α, IL-6, IL-1β mRNA expression in RAW 264.7 cells; assay: qRT-PCR of inflammatory cytokine mRNA in LPS-stimulated RAW 264.7 cells; type: cell-based, murine; design: key to Anti-inflammatory activity (summary): +, active; -, inactive; settings: for Anti-inflammatory activity (summary): Figure 4B summary, LPS-stimulated RAW 264.7 cells
Protocol: RAW 264.7 cells (1 × 10^5 cells/well) were seeded in 6-well plates and incubated for 24 h (Ahmed et al. [2020]). Next, culture medium with melittin or melittin-derived peptides was added to the plates, and they were incubated for 24 h. Thereafter, lipopolysaccharide (LPS) was added to the medium at a final concentration of 1 μg/mL, followed by incubation for 6 h. The medium was completely removed, the cells were washed with cold PBS and lysed with 1 mL of RiboEx (GeneAll, Korea), and RNA was extracted using a Hybrid-R RNA purification kit (GeneAll). To synthesize cDNA, RNA was quantified using a Nabi UV/Vis nanospectrophotometer (MicroDigital, Korea), and 1 μL of random hexamer (100 pmol/μL) and 1 μL of dNTP mix (10 mM) were added to each RNA sample (1 μg). The total volume was adjusted to 10 μL using DEPC-treated water. The mixture was subjected to heating at 65 °C for 5 min and immediately cooled on ice. Thereafter, 1 μL M-MLV reverse transcriptase (Promega), 4 μL 5X M-MLV RT reaction buffer (Promega), 1 μL RNase inhibitor (Enzynomics, Korea), and 4 μL DEPC-treated water were added to each RNA sample, and the mixture was incubated at 25 °C for 10 min and then at 50 °C for 1 h.
The mRNA expression levels of inflammatory cytokines were analyzed using qRT-PCR. The reaction mixture contained 10 μL of 2X Prime Q-master Mix (GENET BIO, Korea), 1.5 μL of 10 pmol/μL forward primer, 1.5 μL of 10 pmol/μL reverse primer, 5 μL of DEPC-treated water, and 2 μL of cDNA (1/10 dilution); qRT-PCR was performed using AriaMx (Agilent, USA) as per the following conditions: 40 cycles of denaturation at 95 °C for 20 s, annealing at 58 °C for 20 s, and elongation at 72 °C for 20 s. The primers used for the qRT-PCR are listed in Supplementary 1.

[3] = tested on: IκBα phosphorylation in RAW 264.7 cells; assay: Immunoblot of phospho-IκBα in LPS-stimulated RAW 264.7 cells; type: cell-based, murine; settings: RAW 264.7, 24 h pretreatment (melittin 1.25 μM; P1 2.5 μM; P2 indicated concentrations), LPS 1 μg/mL 1 h, n = 3
Protocol: RAW 264.7 cells (1 × 10^5 cells/well) were seeded in a 6-well plate and incubated for 24 h. Medium containing melittin or melittin-derived peptides was added, and the plates were incubated for 24 h. Thereafter, LPS was added to the medium at a final concentration of 1 μg/mL, followed by incubation for 1 h. To prepare protein samples, the medium was completely removed by aspiration, and the cells were washed with cold PBS and then lysed with lysis buffer [10 mM Tris-HCl (pH 7.5), 100 mM NaCl, 1 mM EDTA, 1 mM EGTA, 1% Triton X-100, 10% glycerol, and 0.1% SDS] with a protease inhibitor cocktail (Roche, Switzerland). The protein samples were sonicated and centrifuged at 16,000 × g for 10 min. The supernatant was then transferred to a new tube and used for immunoblot analysis. The protein samples were separated using sodium dodecyl sulfate-polyacrylamide gel electrophoresis (SDS-PAGE), and the separated proteins were transferred onto a nitrocellulose membrane (0.45 μm, Merck Millipore, USA). […] The unbound antibodies were washed with PBS-T, and the antibodies bound to the nitrocellulose membrane were detected using the SuperSignal system (SuperSignal; Thermo Fisher Scientific), using horseradish peroxidase-conjugated secondary antibodies (Abcam, Cambridge, UK).

RBL-2H3 cells = assay: β-Hexosaminidase release (degranulation) assay; type: cell-based, rat; design: key: +, active; -, inactive; settings: Figure 4B summary
Protocol: The β-hexosaminidase release assay was performed as previously described. RBL-2H3 cells (5 × 10^4 cells/well) were seeded in 96-well plates and incubated for 24 h. The medium was removed, and the cells were washed twice with siraganian buffer (119 mM NaCl, 5 mM KCl, 5.6 mM glucose, 0.4 mM MgCl2, 25 mM PIPES, 40 mM NaOH, 1 mM CaCl2, and 0.1% BSA, pH 7.2), and then incubated in 100 μL siraganian buffer supplemented with compound 48/80 (Sigma-Aldrich, St. Louis, MO, USA), melittin, or melittin-derived peptides for 1 h. Compound 48/80 was used as a positive control. The reaction was terminated by incubation at 4 °C for 10 min. The fluorescence of β-hexosaminidase in the supernatant was measured with a β-hexosaminidase activity assay kit (Cell Biolabs, USA) using a 2104 EnVision multilabel plate reader (PerkinElmer, USA) at […]. The relative fluorescence units of β-hexosaminidase release were calculated by subtracting the fluorescence intensity of the control group from that of the experimental group.

Compound	antioxidant activity (ABTS radical scavenging), in words [1]	Anti-oxidant activity (summary) [1]	cellular activity (cell viability) (BEAS-2B cells; BEAS-2B, 2.5 μM, MTS, n = 3) [%]	concentration showing strong cytotoxicity (BEAS-2B cells; BEAS-2B, MTS) [µM]	Cytotoxicity (summary) (BEAS-2B cells)	Anti-inflammatory activity (summary) [2]	inhibition of mRNA expression of inflammatory cytokines (TNF-α, IL-6, IL-1β) ([2]; RAW 264.7, 1.25 μM, 24 h pretreatment, LPS 1 μg/mL 6 h, qRT-PCR, n = 3)	effect on LPS-induced IκBα phosphorylation [3]	Allergenic activity (summary) (RBL-2H3 cells)
CC[C@H](C)[C@H](NC(=O)CN)C(=O)NCC(=O)N[C@@H](C)C(=O)N[C@H](C(=O)N[C@@H](CC(C)C)C(=O)N[C@@H](CCCCN)C(=O)N[C@H](C(=O)N[C@@H](CC(C)C)C(=O)N[C@H](C(=O)N[C@H](C(=O)NCC(=O)N[C@@H](CC(C)C)C(=O)N1CCC[C@H]1C(=O)N[C@@H](C)C(=O)N[C@@H](CC(C)C)C(=O)N[C@H](C(=O)N[C@@H](CO)C(=O)N[C@@H](Cc1c[nH]c2ccccc12)C(=O)N[C@H](C(=O)N[C@@H](CCCCN)C(=O)N[C@@H](CCCNC(=N)N)C(=O)N[C@@H](CCCCN)C(=O)N[C@@H](CCCNC(=N)N)C(=O)N[C@@H](CCC(N)=O)C(=O)N[C@@H](CCC(N)=O)C(N)=O)[C@@H](C)CC)[C@@H](C)CC)[C@@H](C)O)[C@@H](C)O)C(C)C)C(C)C [Melittin]	comparable to that of resveratrol	+	75	≥ 5	+	+	significant inhibition	decreased slightly	+
P3: melittin-derived peptide composed of C-terminal 11 amino acids (LISWIKRKRQQ; ends and bridges not checked; UniProt P01501 59-69, looked up, fragment)		+			-	-			
P4: melittin-derived peptide consisting of nine amino acids of the N-terminal of melittin (GIGAVLKVL; Melittin; UniProt P01501 44-52, looked up, fragment)	did not show antioxidant activity	-			-	-			
